From paper PMC8750527 (Cancers, 2021)

Experiments:
[1] = tested on: D458; assay: MTT assay, 48 h exposure, D458 MB cells; format: cell-based, human; details: for IC50: Homo sapiens, Table 1, MTT, 48 h exposure, mean ± SEM; for Specificity Index relative to C8D1A, D458: ratio IC50 C8-D1A / IC50 D458; for Specificity Index relative to HDF, D458: ratio IC50 HDF / IC50 D458
Procedure: (§1) HDF (3000 cells), C8-D1A (5000 cells), D458 (5000 cells), DAOY (2000 cells), HD-MB03 (10,000 cells) and CHLA-01-Med (10,000 cells) were seeded at an approximate confluency of 50% in 96-well plates (Corning Inc., Corning, NY, USA) in 100 µL medium per well. A range from 50 nM to 150 µM of every drug was tested. The effects of the antiangiogenic compounds were measured using a 3-[4,5-dimethylthiazol-2yl]-diphenyltetrazolium bromide (MTT) colorimetric assay (Sigma, Lyon, France) according to the manufacturer’s instructions. When applicable, IC50 was calculated using the nonlinear regression method of the Prism 5 software (Graphpad Software Inc., San Diego, CA, USA). […] An MTT assay was conducted as described above to assess the fitness of the cells.

[2] = tested on: HDF; assay: Cell viability, propidium iodine incorporation, HDF; format: cell-based, human; details: 48 h; axitinib, cabozantinib 5 µM, etoposide 1 µM
Procedure: (§2) Cell viability assays were conducted using a propidium iodine incorporation technique with an ADAM-sHIT automated cell counter (NanoEnTek, Gyeonggi-do, Korea) according to the manufacturer’s protocol.

[3] = tested on: HD-MB03; assay: MTT assay, 48 h exposure, HD-MB03 MB cells; format: cell-based, human; details: for IC50: Homo sapiens, HD-MB03, Table 1, MTT, 48 h exposure, mean ± SEM; for Specificity Index relative to C8D1A, HDMB: ratio IC50 C8-D1A / IC50 HD-MB03; for Specificity Index relative to HDF, HD-MB03: ratio IC50 HDF / IC50 HD-MB03
Procedure: as §1

[4] = tested on: DAOY; assay: MTT assay, 48 h exposure, DAOY MB cells; format: cell-based, human; details: for IC50: Homo sapiens, Daoy, Table 1, MTT, 48 h exposure, mean ± SEM; for Specificity Index relative to C8D1A, DAOY: ratio IC50 C8-D1A / IC50 DAOY; for Specificity Index relative to HDF, DAOY: ratio IC50 HDF / IC50 DAOY
Procedure: as §1

[5] = tested on: MB cells; assay: Cell viability, propidium iodine incorporation, MB cells; format: cell-based, human; details: 48 h, 5 µM
Procedure: as §2

[6] = tested on: HDF; assay: MTT assay, 48 h exposure, human dermal fibroblasts; format: cell-based; details: Homo sapiens, HDF, Table 1, normal cells, mean ± SEM
Procedure: as §1

[7] = tested on: CHLA-01-Med; assay: MTT assay, 48 h exposure, CHLA-01-Med MB cells; format: cell-based, human; details: for IC50: Homo sapiens, Table 1, MTT, 48 h exposure, mean ± SEM; for Specificity Index relative to C8D1A, CHLA-01-Med: ratio IC50 C8-D1A / IC50 CHLA-01-Med; for Specificity Index relative to HDF, CHLA-01-Med: ratio IC50 HDF / IC50 CHLA-01-Med
Procedure: as §1

[8] = tested on: C8-D1A; assay: MTT assay, 48 h exposure, murine primary astrocytes; format: cell-based; details: Mus musculus, C8-D1A, Table 1, normal cells, mean ± SEM, read-out: IC50 (µM) C8D1A
Procedure: as §1

[9] = tested on: C8-D1A astrocytes; assay: Cell viability, propidium iodine incorporation, C8-D1A; format: cell-based, murine; details: 48 h; axitinib, cabozantinib, sunitinib 5 µM, etoposide 1 µM
Procedure: as §2

| SMILES | IC50 [1] | Specificity Index relative to C8D1A, D458 [1] | Specificity Index relative to HDF, D458 [1] | viability of HDF normal cells [2] | IC50 [3] | Specificity Index relative to C8D1A, HDMB [3] | Specificity Index relative to HDF, HD-MB03 [3] | IC50 [4] | Specificity Index relative to C8D1A, DAOY [4] | Specificity Index relative to HDF, DAOY [4] | viability of MB cells [5] | IC50 [6] | IC50 [7] | Specificity Index relative to C8D1A, CHLA-01-Med [7] | Specificity Index relative to HDF, CHLA-01-Med [7] | IC50 [8] | viability of C8-D1A normal cells [9] |
| --- | --- | --- | --- | --- | --- | --- | --- | --- | --- | --- | --- | --- | --- | --- | --- | --- | --- |
| COc1cc2nccc(Oc3ccc(NC(=O)C4(C(=O)Nc5ccc(F)cc5)CC4)cc3)c2cc1OC [Cabozantinib, cabozantinib] | 5.1 ± 1.6 µM | 0.78 | 0.80 | no effect on the viability | 0.78 ± 0.2 µM | 5.13 | 5.26 | 8.3 ± 1.2 µM | 0.48 | 0.49 | decreased the viability of most MB cells | 4.1 ± 1.9 µM | 11.4 ± 2.1 µM | 0.35 | 0.36 | 4 ± 2.2 µM | no effect on the viability |
| CCN(CC)CCNC(=O)c1c(C)[nH]c(/C=C2\C(=O)Nc3ccc(F)cc32)c1C [Sunitinib, sunitinib] | 4.2 ± 0.3 µM | 1.36 | 0.43 | – | 4.6 ± 0.3 µM | 1.24 | 0.39 | 7.9 ± 5.5 µM | 0.72 | 0.23 | decreased the viability of most MB cells | 1.8 ± 0.04 µM | 7.5 ± 0.8 µM | 0.76 | 0.24 | 5.7 ± 2.2 µM | strongly induced the death |
